Assay results reported in patent publication US4309559A, “Sulphonamides useful as pesticides” (FBC Limited, priority 1977, dated 1982).

Assays:
Assay type in all cases: in vivo
Mustard (Sinapis alba) = test: Post-emergence foliar spray, herbicidal/growth regulant response, mustard; details: 168 h, foliar spray 11.2 kg/ha, 7 days, 0=no effect, 100=complete kill, read-out: herbicidal or growth regulant response index
Summary of the method: (§1)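 Test compound, dissolved in 1:1 by volume aqueous acetone, is applied as a foliar spray equivalent to 11.2 kg/ha in 450 L/ha to seedlings two weeks after sowing. Responses are rated visually after one week on a 0–100 kill scale.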

[1] = test system: Sugarbeet (Beta vulgaris); test: Post-emergence foliar spray, herbicidal/growth regulant response, sugarbeet; details: 168 h, foliar spray 11.2 kg/ha, 7 days, 0=no effect, 100=complete kill, read-out: herbicidal or growth regulant response index
Summary of the method: as §1

[2] = test system: French beans (Phaseolus vulgaris); test: Post-emergence foliar spray, herbicidal/growth regulant response, French beans; details: foliar spray 11.2 kg/ha, 7 days, 0=no effect, 100=complete kill
Summary of the method: as §1

[3] = test system: Linseed (Linum usitatissimum); test: Soil incorporation (attaclay/sand dust), growth regulatory or herbicidal effects, linseed; details: 504 h, soil incorporation 26 ppm, 21 days, 0=no effect, 100=complete kill, read-out: growth regulatory or herbicidal effect score
Summary of the method: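 Dust-formulated compound incorporated in potting compost, 26 or 130 ppm w/v; seeds sown, watered, 21 d at 22° C, 65-85% RH, 14 h/day 13,000 lux. Visual growth-regulatory/herbicidal score 0 (no effect) to 100 (complete kill) vs untreated.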

[4] = test system: Wheat (Triticum aestivum); test: Pre-emergence soil surface spray, wheat; details: soil surface spray 2.8 kg/ha, 21 days, 0=no effect, 100=complete kill
Summary of the method: (§2)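 Compounds are applied to the compost surface right after sowing, at 2.8 kg active ingredient per hectare. After 21 days in a controlled environment room at 22° C., any difference from untreated plants is rated visually from 0 (no effect) to 100 (complete kill).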

Wild Oat (Avena fatua) = test: Pre-emergence soil surface spray, wild oat; details: soil surface spray 2.8 kg/ha, 21 days, 0=no effect, 100=complete kill
Summary of the method: as §2

[5] = test system: Blackgrass (Alopecurus myosuroides); test: Pre-emergence soil surface spray, blackgrass; details: soil surface spray 2.8 kg/ha, 21 days, 0=no effect, 100=complete kill
Summary of the method: as §2

CCCS(=O)(=O)N(c1c(C)cccc1C)C(C)C(=O)OCC (stereo not shown) [Example 24, N-(1-[ethoxycarbonyl]ethyl)-2',6'-dimethyl-1-propanesulphonanilide]
pest or weed control at 11200 g/ha (Mustard (Sinapis alba)): 100% | plant injury at 11200 g/ha [1]: 90% | herbicidal or growth regulant response index [2]: 100 | pest or weed control at 26 µg/mL [3]: 100% | growth regulatory or herbicidal effect score [4]: 10 | growth regulatory or herbicidal effect score (Wild Oat (Avena fatua)): 100 | growth regulatory or herbicidal effect score [5]: 100
